Data taken from ChEMBL document CHEMBL4382233, “Discovery of novel arylethenesulfonyl fluorides as potential candidates against methicillin-resistant of Staphylococcus aureus (MRSA) for overcoming multidrug resistance of bacterial infections” (2019).
≈ marks a conversion by molar mass, not a printed value.

Legend:
Assay type in all cases: functional
Staphylococcus aureus [1] = experiment: Antibacterial activity against methicillin-resistant Staphylococcus aureus after overnight incubation by micro broth dilution analysis
[2] = tested on: Staphylococcus epidermidis; experiment: Antibacterial activity against methicillin-resistant Staphylococcus epidermidis after overnight incubation by micro broth dilution analysis
[3] = tested on: Staphylococcus haemolyticus; experiment: Antibacterial activity against methicillin-resistant Staphylococcus haemolyticus after overnight incubation by micro broth dilution analysis
Staphylococcus aureus [4] = experiment: Antibacterial activity against methicillin-resistant Staphylococcus aureus assessed as zone of inhibition at 50 ug/mL after 24 hrs by agar disc diffusion method; settings: read-out: IZ
Staphylococcus aureus [5] = experiment: Antibacterial activity against methicillin-resistant Staphylococcus aureus assessed as zone of inhibition at 200 ng/mL after 24 hrs by agar disc diffusion method; settings: read-out: IZ
Staphylococcus aureus [6] = experiment: Antibacterial activity against methicillin-resistant Staphylococcus aureus assessed as zone of inhibition at 400 ng/mL after 24 hrs by agar disc diffusion method; settings: read-out: IZ
Staphylococcus aureus [7] = experiment: Antibacterial activity against methicillin-resistant Staphylococcus aureus assessed as zone of inhibition at 800 ng/mL after 24 hrs by agar disc diffusion method; settings: read-out: IZ
[8] = tested on: Staphylococcus epidermidis; experiment: Antibacterial activity against methicillin-resistant Staphylococcus epidermidis assessed as zone of inhibition at 20 ug/mL after 24 hrs by agar disc diffusion method; settings: read-out: IZ
[9] = tested on: Staphylococcus haemolyticus; experiment: Antibacterial activity against methicillin-resistant Staphylococcus haemolyticus assessed as zone of inhibition at 50 ug/mL after 24 hrs by agar disc diffusion method; settings: read-out: IZ

SMILES	MIC99 (Staphylococcus aureus [1]) [µg/mL]	MIC99 [2] [µg/mL]	MIC99 [3] [µg/mL]	zone of inhibition at 50 µg/mL (Staphylococcus aureus [4]) [mm]	zone of inhibition at 0.2 µg/mL (Staphylococcus aureus [5]) [mm]	zone of inhibition at 0.4 µg/mL (Staphylococcus aureus [6]) [mm]	zone of inhibition at 0.8 µg/mL (Staphylococcus aureus [7]) [mm]	zone of inhibition at 20 µg/mL [8] [mm]	zone of inhibition at 50 µg/mL [9] [mm]
O=S(=O)(F)/C=C/c1cccc2c1sc1ccccc12	48.2 (≈ 165 µM)	55 (≈ 188 µM)	66 (≈ 226 µM)	8.1	3.5	4.4	4.5	4.1	4.5
O=S(=O)(F)/C=C/C=C/c1ccccc1C(F)(F)F	55.1 (≈ 197 µM)	52.6 (≈ 188 µM)	55.1 (≈ 197 µM)	4.1	–	–	–	4.1	4.3
O=S(=O)(F)/C=C/C=C/c1ccc(Br)cc1	51.1 (≈ 176 µM)	57 (≈ 196 µM)	70 (≈ 241 µM)	4.5	–	–	–	5.4	4.5
O=S(=O)(F)/C=C/c1cnn(-c2ccccc2)c1	51.2 (≈ 203 µM)	52.3 (≈ 207 µM)	51.1 (≈ 203 µM)	3.1	–	–	–	4.3	3.5
O=S(=O)(F)/C=C/c1ccc(-c2ccccc2)cc1	53.2 (≈ 203 µM)	65.1 (≈ 248 µM)	56.1 (≈ 214 µM)	4.3	–	–	–	5.1	3.5
Cc1ccc(S(=O)(=O)n2cc(/C=C/S(=O)(=O)F)c3ccccc32)cc1	47.1 (≈ 124 µM)	51.2 (≈ 135 µM)	58 (≈ 153 µM)	5.1	–	–	–	4.1	4.2
O=S(=O)(F)/C=C/C=C/c1ccccc1	56.2 (≈ 265 µM)	52 (≈ 245 µM)	58.1 (≈ 274 µM)	6.2	–	–	–	6.2	5.2
Cc1ccc(S(=O)(=O)n2c3ccccc3c3cc(/C=C/S(=O)(=O)F)ccc32)cc1	48 (≈ 112 µM)	50.1 (≈ 117 µM)	58 (≈ 135 µM)	4.3	–	–	–	3.5	3.3
O=S(=O)(F)/C=C/C=C/c1ccc(C(F)(F)F)cc1	59.1 (≈ 211 µM)	55.2 (≈ 197 µM)	67 (≈ 239 µM)	5.1	–	–	–	6.5	4.5
O=S(=O)(F)/C=C/C=C/c1ccc(/C=C/S(=O)(=O)F)cc1	66.8 (≈ 209 µM)	56 (≈ 175 µM)	55 (≈ 172 µM)	5.3	–	–	–	4.2	3.5
CCOC(=O)c1cccc(/C=C/S(=O)(=O)F)c1	40.6 (≈ 157 µM)	53 (≈ 205 µM)	50.2 (≈ 194 µM)	4.2	–	–	–	4.2	4.3
O=S(=O)(F)/C=C/c1ccc2ccccc2c1	47 (≈ 199 µM)	43.1 (≈ 183 µM)	65.5 (≈ 277 µM)	7.2	–	–	–	4.4	3.5
O=S(=O)(F)/C=C/c1coc2ccccc12	45 (≈ 199 µM)	52.1 (≈ 231 µM)	51 (≈ 225 µM)	6.2	–	–	–	6.4	3.5
O=Cc1ccc(/C=C/S(=O)(=O)F)o1	0.845 (≈ 4.14 µM)	61 (≈ 299 µM)	55.1 (≈ 270 µM)	7.2	–	–	–	7.4	4.5
O=S(=O)(F)/C=C/c1ccc(Oc2ccccc2)cc1	51.2 (≈ 184 µM)	44.2 (≈ 159 µM)	61.1 (≈ 220 µM)	4.4	–	–	–	6.4	4.1
Cc1ccc(S(=O)(=O)n2ccc3cc(/C=C/S(=O)(=O)F)ccc32)cc1	60.6 (≈ 160 µM)	66 (≈ 174 µM)	61 (≈ 161 µM)	4.2	–	–	–	4.3	3.5
O=S(=O)(F)/C=C/C=C/c1ccc2ccccc2c1	58 (≈ 221 µM)	63 (≈ 240 µM)	51 (≈ 195 µM)	3.3	–	–	–	5.4	4.5
O=S(=O)(F)/C=C/c1ccc(F)cc1	16.1 (≈ 79 µM)	61.1 (≈ 299 µM)	57.3 (≈ 281 µM)	10.1	3.5	4.1	4.5	5.2	4.2
O=C(O)c1ccc(/C=C/S(=O)(=O)F)cc1	55.3 (≈ 240 µM)	50.1 (≈ 217 µM)	43.3 (≈ 188 µM)	7.2	–	–	–	6.5	3.3

SMILES	MIC99 (Staphylococcus aureus [1]) [µg/mL]	MIC99 [2] [µg/mL]	MIC99 [3] [µg/mL]	zone of inhibition at 50 µg/mL (Staphylococcus aureus [4]) [mm]	zone of inhibition at 0.2 µg/mL (Staphylococcus aureus [5]) [mm]	zone of inhibition at 0.4 µg/mL (Staphylococcus aureus [6]) [mm]	zone of inhibition at 0.8 µg/mL (Staphylococcus aureus [7]) [mm]	zone of inhibition at 20 µg/mL [8] [mm]	zone of inhibition at 50 µg/mL [9] [mm]
COc1ccc(Cl)cc1/C=C/S(=O)(=O)F	51.1 (≈ 204 µM)	40.4 (≈ 161 µM)	47 (≈ 188 µM)	5.1	–	–	–	5.2	5.2
CCc1ccc(/C=C/S(=O)(=O)F)cc1	45.1 (≈ 211 µM)	56.2 (≈ 262 µM)	60 (≈ 280 µM)	5.1	–	–	–	6.1	3.5
O=S(=O)(F)/C=C/C=C/c1ccc(F)c(F)c1	50.1 (≈ 202 µM)	51.6 (≈ 208 µM)	55.1 (≈ 222 µM)	6.1	–	–	–	5.5	4.3
O=S(=O)(F)/C=C/c1ccc(F)cc1F	16.1 (≈ 72.3 µM)	47 (≈ 212 µM)	55.1 (≈ 248 µM)	14.1	3.1	3.5	4.1	3.7	3.5
O=Cc1ccccc1/C=C/S(=O)(=O)F	47.2 (≈ 220 µM)	52.1 (≈ 243 µM)	44.1 (≈ 206 µM)	6.1	–	–	–	4.3	4.2
CC(C)(C)c1ccc(/C=C/C=C/S(=O)(=O)F)cc1	58.2 (≈ 217 µM)	62.1 (≈ 232 µM)	65.3 (≈ 243 µM)	6.3	–	–	–	5.5	4.5
Cc1ccc(/C=C/C=C/S(=O)(=O)F)cc1	60.6 (≈ 268 µM)	57 (≈ 252 µM)	51 (≈ 225 µM)	4.1	–	–	–	4.1	4.3
O=S(=O)(F)/C=C/c1cccc(/C=C/S(=O)(=O)F)c1	44.1 (≈ 150 µM)	41.2 (≈ 140 µM)	50 (≈ 170 µM)	4.2	–	–	–	6.5	4.4
COc1cc(/C=C/C=C/S(=O)(=O)F)cc(OC)c1	61.1 (≈ 225 µM)	57.1 (≈ 210 µM)	56.6 (≈ 208 µM)	16.1	5.2	7.1	8.5	4.1	4.2
COc1ccc(/C=C/S(=O)(=O)F)cc1	48.1 (≈ 222 µM)	51.3 (≈ 237 µM)	68.2 (≈ 315 µM)	52	–	–	–	60.4	6.3
O=S(=O)(F)/C=C/c1cccs1	52 (≈ 271 µM)	50.1 (≈ 260 µM)	50.6 (≈ 263 µM)	5.2	–	–	–	4.5	4.1
O=S(=O)(F)/C=C/c1cc2ccccc2s1	55 (≈ 227 µM)	70.2 (≈ 290 µM)	63.1 (≈ 261 µM)	8.2	4.4	6.3	8.5	5.2	4.5
O=S(=O)(F)/C=C/c1ccccc1O	0.853 (≈ 4.22 µM)	58 (≈ 287 µM)	61 (≈ 302 µM)	12.1	3.5	5.2	7.7	6.2	3.5
O=S(=O)(F)/C=C/c1cccc2c1oc1ccccc12	17 (≈ 61.6 µM)	67.5 (≈ 244 µM)	47 (≈ 170 µM)	6.3	–	–	–	3.5	3.3
O=S(=O)(F)/C=C/c1cccc(-c2ccccc2)c1	40.1 (≈ 153 µM)	44.1 (≈ 168 µM)	40.2 (≈ 153 µM)	7.8	–	–	–	5.5	5.2
CCOC(=O)c1ccc(/C=C/S(=O)(=O)F)cc1	41.1 (≈ 159 µM)	56.1 (≈ 217 µM)	67.3 (≈ 261 µM)	6.1	–	–	–	5.5	4.2
O=S(=O)(F)/C=C/c1ccc(I)cc1	48.2 (≈ 154 µM)	50.6 (≈ 162 µM)	47.6 (≈ 153 µM)	5.2	–	–	–	5.2	4.4
O=Cc1ccc(/C=C/S(=O)(=O)F)cc1	45.6 (≈ 213 µM)	48.2 (≈ 225 µM)	60.1 (≈ 281 µM)	6	–	–	–	4.3	5.2
N#Cc1cccc(/C=C/C=C/S(=O)(=O)F)c1	41.2 (≈ 174 µM)	50 (≈ 211 µM)	51.2 (≈ 216 µM)	3.5	–	–	–	4.5	5.1
